Experimental data from PubChem BioAssay (NCI).
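Following 48 hours of exposure in 96-well plates, responses at five concentrations were used to interpolate endpoints linearly. GI50: concentration for 50% inhibition of growth. TGI is the concentration that stops growth completely.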

Experiments:
Experiment in all cases: inhibition of tumour cell growth, NCI panel, 48 h
OVCAR-5 ovarian = system: OVCAR-5 ovarian
RXF 393 renal = system: RXF 393 renal
T-47D breast = system: T-47D breast
M14 melanoma = system: M14 melanoma
COLO 205 colon = system: COLO 205 colon
MCF7 breast = system: MCF7 breast
IGROV1 ovarian = system: IGROV1 ovarian
BT-549 breast = system: BT-549 breast
SK-MEL-2 melanoma = system: SK-MEL-2 melanoma
A549 NSCLC = system: A549 NSCLC
EKVX NSCLC = system: EKVX NSCLC
MDA-MB-435 = system: MDA-MB-435
NCI/ADR-RES ovarian = system: NCI/ADR-RES ovarian
HS 578T breast = system: HS 578T breast
K-562 leukemia = system: K-562 leukemia
MDA-MB-231 breast = system: MDA-MB-231 breast
HL-60(TB) leukemia = system: HL-60(TB) leukemia
SK-MEL-5 melanoma = system: SK-MEL-5 melanoma
OVCAR-4 ovarian = system: OVCAR-4 ovarian
HCC-2998 colon = system: HCC-2998 colon
SK-MEL-28 melanoma = system: SK-MEL-28 melanoma
HOP-92 NSCLC = system: HOP-92 NSCLC
SK-OV-3 ovarian = system: SK-OV-3 ovarian
OVCAR-3 ovarian = system: OVCAR-3 ovarian
NCI-H460 lung = system: NCI-H460 lung
SF-268 CNS = system: SF-268 CNS
A498 renal = system: A498 renal
CCRF-CEM leukemia = system: CCRF-CEM leukemia
HCT-15 colon = system: HCT-15 colon
U251 CNS = system: U251 CNS
ACHN renal = system: ACHN renal
UACC-62 melanoma = system: UACC-62 melanoma
PC-3 prostate = system: PC-3 prostate
HT29 colon = system: HT29 colon
NCI-H226 lung = system: NCI-H226 lung
KM12 colon = system: KM12 colon
CAKI-1 renal = system: CAKI-1 renal
SNB-19 CNS = system: SNB-19 CNS
786-0 renal = system: 786-0 renal
SNB-75 CNS = system: SNB-75 CNS
RPMI-8226 leukemia = system: RPMI-8226 leukemia
NCI-H23 lung = system: NCI-H23 lung
TK-10 renal = system: TK-10 renal
UACC-257 melanoma = system: UACC-257 melanoma
HOP-62 NSCLC = system: HOP-62 NSCLC
MALME-3M melanoma = system: MALME-3M melanoma
DU-145 prostate = system: DU-145 prostate
MOLT-4 leukemia = system: MOLT-4 leukemia
UO-31 renal = system: UO-31 renal
SR leukemia = system: SR leukemia
SW-620 colon = system: SW-620 colon
SN12C renal = system: SN12C renal
NCI-H522 lung = system: NCI-H522 lung
LOX IMVI melanoma = system: LOX IMVI melanoma
SF-539 CNS = system: SF-539 CNS
OVCAR-8 ovarian = system: OVCAR-8 ovarian
HCT-116 colon = system: HCT-116 colon
SF-295 CNS = system: SF-295 CNS

## C[C@@H](Oc1cc(-n2cnc3ccc(OCC4CCN(C)CC4)cc32)sc1C(N)=O)c1ccccc1Cl
OVCAR-5 ovarian
  GI50: 0.113 µM
  TGI: 4.19 µM
RXF 393 renal
  GI50: 0.0546 µM
  TGI: 2.76 µM
T-47D breast
  GI50: 2.86 µM
  TGI: 6.3 µM
M14 melanoma
  GI50: 0.0561 µM
  TGI: 3.12 µM
COLO 205 colon
  GI50: 0.0165 µM
  TGI: 0.631 µM
MCF7 breast
  GI50: 0.0123 µM
  TGI: 3.68 µM
IGROV1 ovarian
  GI50: 0.129 µM
  TGI: 4.9 µM
BT-549 breast
  GI50: 0.397 µM
  TGI: 3.58 µM
SK-MEL-2 melanoma
  GI50: 0.0559 µM
  TGI: 4.13 µM
A549 NSCLC
  GI50: 0.0919 µM
  TGI: 2.93 µM
EKVX NSCLC
  GI50: 0.158 µM
  TGI: 4.96 µM
MDA-MB-435
  GI50: 0.0126 µM
  TGI: 0.0643 µM
NCI/ADR-RES ovarian
  GI50: 0.258 µM
  TGI: 2.4 µM
HS 578T breast
  GI50: 0.0759 µM
  TGI: 0.502 µM
K-562 leukemia
  GI50: 0.0437 µM
  TGI: 3.34 µM
MDA-MB-231 breast
  GI50: 0.0924 µM
  TGI: 2.15 µM
HL-60(TB) leukemia
  GI50: 0.044 µM
  TGI: 0.543 µM
SK-MEL-5 melanoma
  GI50: 0.0929 µM
  TGI: 1.26 µM
OVCAR-4 ovarian
  GI50: 0.477 µM
  TGI: 4.81 µM
HCC-2998 colon
  GI50: 0.0815 µM
  TGI: 3.27 µM
SK-MEL-28 melanoma
  GI50: 0.165 µM
  TGI: 4.62 µM
HOP-92 NSCLC
  GI50: 0.156 µM
  TGI: 2.51 µM
SK-OV-3 ovarian
  GI50: 0.101 µM
  TGI: 2.93 µM
OVCAR-3 ovarian
  GI50: 0.0577 µM
  TGI: 2.97 µM
NCI-H460 lung
  GI50: 0.0846 µM
  TGI: 3.04 µM
SF-268 CNS
  GI50: 0.112 µM
  TGI: 4.07 µM
A498 renal
  GI50: 0.0927 µM
  TGI: 0.713 µM
CCRF-CEM leukemia
  GI50: 0.00965 µM
  TGI: 0.856 µM
HCT-15 colon
  GI50: 0.0998 µM
  TGI: 3.39 µM
U251 CNS
  GI50: 0.106 µM
  TGI: 3.86 µM
ACHN renal
  GI50: 0.368 µM
  TGI: 5.04 µM
UACC-62 melanoma
  GI50: 0.0957 µM
  TGI: 4.07 µM
PC-3 prostate
  GI50: 0.136 µM
  TGI: 4.42 µM
HT29 colon
  GI50: 0.0108 µM
  TGI: 2.68 µM
NCI-H226 lung
  GI50: 0.674 µM
  TGI: 4.81 µM
KM12 colon
  GI50: 0.0507 µM
  TGI: 2.73 µM
CAKI-1 renal
  GI50: 0.774 µM
  TGI: 4.81 µM
SNB-19 CNS
  GI50: 0.177 µM
  TGI: 5.01 µM
786-0 renal
  GI50: 0.315 µM
  TGI: 3.92 µM
SNB-75 CNS
  GI50: 0.0898 µM
  TGI: 1.81 µM
RPMI-8226 leukemia
  GI50: 0.094 µM
  TGI: 4.61 µM
NCI-H23 lung
  GI50: 0.103 µM
  TGI: 3.64 µM
TK-10 renal
  GI50: 0.583 µM
  TGI: 5.13 µM
UACC-257 melanoma
  GI50: 0.117 µM
  TGI: 4.99 µM
HOP-62 NSCLC
  GI50: 0.0977 µM
  TGI: 3.55 µM
MALME-3M melanoma
  GI50: 2.93 µM
  TGI: 6.95 µM
DU-145 prostate
  GI50: 0.0528 µM
  TGI: 0.141 µM
MOLT-4 leukemia
  GI50: 0.0585 µM
  TGI: 3.13 µM
UO-31 renal
  GI50: 0.616 µM
  TGI: 3.96 µM
SR leukemia
  GI50: 0.0448 µM
  TGI: 0.697 µM
SW-620 colon
  GI50: 0.0267 µM
  TGI: 3.27 µM
SN12C renal
  GI50: 0.344 µM
  TGI: 4.52 µM
NCI-H522 lung
  GI50: 0.0382 µM
  TGI: 0.147 µM
LOX IMVI melanoma
  GI50: 0.0926 µM
  TGI: 3.6 µM
SF-539 CNS
  GI50: 0.107 µM
  TGI: 1.62 µM
OVCAR-8 ovarian
  GI50: 0.0793 µM
  TGI: 3.11 µM
HCT-116 colon
  GI50: 0.0617 µM
  TGI: 3.05 µM
SF-295 CNS
  GI50: 0.0853 µM
  TGI: 3.31 µM
